Measurements as given in PMC7835950 (Frontiers in Chemistry, 2021).
“And” between values parts separate entries of the source, which are not always exact repeats. Equal values may be shown once. Read-outs that look alike come from different tables or passages of the source.

Target: T1, OADH (Rattus norvegicus, UniProt Q4KLP0)
T1 sequence (Q4KLP0 45-920 limits assumed): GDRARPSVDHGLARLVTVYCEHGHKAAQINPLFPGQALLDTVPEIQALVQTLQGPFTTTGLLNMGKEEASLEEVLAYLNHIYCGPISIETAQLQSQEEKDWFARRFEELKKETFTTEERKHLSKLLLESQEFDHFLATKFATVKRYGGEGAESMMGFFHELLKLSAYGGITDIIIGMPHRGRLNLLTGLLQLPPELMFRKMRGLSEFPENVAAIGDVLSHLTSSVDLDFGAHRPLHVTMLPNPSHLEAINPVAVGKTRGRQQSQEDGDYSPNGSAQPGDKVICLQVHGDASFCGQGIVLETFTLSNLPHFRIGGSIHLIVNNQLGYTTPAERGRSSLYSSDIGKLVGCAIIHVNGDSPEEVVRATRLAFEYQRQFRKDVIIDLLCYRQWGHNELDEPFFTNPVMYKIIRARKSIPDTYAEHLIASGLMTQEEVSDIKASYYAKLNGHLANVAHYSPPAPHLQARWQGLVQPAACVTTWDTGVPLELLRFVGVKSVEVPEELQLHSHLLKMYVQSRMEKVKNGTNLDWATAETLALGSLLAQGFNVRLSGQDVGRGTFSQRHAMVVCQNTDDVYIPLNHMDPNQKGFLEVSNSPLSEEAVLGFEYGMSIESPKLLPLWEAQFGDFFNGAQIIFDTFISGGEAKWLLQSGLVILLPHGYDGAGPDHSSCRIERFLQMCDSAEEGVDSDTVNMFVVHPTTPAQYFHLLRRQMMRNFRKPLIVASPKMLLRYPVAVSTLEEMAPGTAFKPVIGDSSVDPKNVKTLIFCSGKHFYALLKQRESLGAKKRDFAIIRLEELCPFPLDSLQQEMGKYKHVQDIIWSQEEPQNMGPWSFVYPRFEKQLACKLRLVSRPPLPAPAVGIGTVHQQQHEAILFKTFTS
Assay: OADH reaction catalyzed by the enzyme preparation from rat liver, low [OA] (high-affinity OA sites)
Assay type: biochemical
Settings: for Ki / Amax: OADH reaction, liver; for Amax: high-affinity sites
Experimental: Enzymes catalyzing OGDH and OADH reactions were enriched from rat hearts and livers using polyethylene glycol precipitation, as previously described (Artiukhov et al., [2020]).
The enzyme activities were assayed in the medium (pH 7.0) containing 50 mM MOPS, 1 mM ThDP, 1 mM MgCl2, 1 mM CaCl2, 1 mM dithiothreitol 0.15 mM Coenzyme A, 0.25 mM NAD^+ and various concentrations of 2-oxo substrates (0–10 mM OG or OA) and their phosphonate analogs (0–5,000 μM SP, GP, or AP). Reactions were started by addition of the enzyme preparations to the assay media. The amount of enzyme preparations (0.074 mg protein for the preparation from liver and 0.023 mg protein for the preparation from heart) were chosen to induce the lowest reliably measured reaction rate (ΔA340 = 0.001/min) at 0.01 mM OA without the phosphonates.
Reaction rates were calculated from linear parts of the product accumulation curves (up to 10 min, dependent on the reaction rate), excluding the initial region, where mixing the reagents and solubilization of the preparation affected the optical density.
Non-linear regression was used to approximate the experimental dependences of the reaction rates on the OG or OA concentration according to the Michaelis-Menten equation ( a=Amax*[S]/Km+[S] ) or its sum ( a=Amax*[S]/Km+[S]+Amax,2*[S]/Km,2+[S] ). The former equation describes one type of the active sites. […] The assumption was based on the presence of the two enzymes, OGDH and OADH, in the employed preparations.
The kinetic data were also analyzed by linear regression, using the known methods of the linearization of the Michaelis-Menten equation in the Lineweaver-Burk ( 1/a=1/Amax(1+Km/[S]) ) and Eadie-Hofstee ( a=Amax−Kmv/[S] ) coordinates. Due to the several orders of magnitude difference in the values of Km,1 and Km,2, the linear regression required separate analysis of the dependencies in the intervals of the low and high concentrations of 2-oxoadipate. The Km and Amax values obtained in independent experiments using the non-linear and linear regression analyses of the experimental data, were averaged and presented as Mean ± Standard Error of Mean.
To determine the inhibition constants (Ki), the effective values of Kmeff and Amaxeff , calculated from the hyperbolic or linear approximations as described above, were plotted against the concentration of the inhibitors ([I]). The linear regression of the equation Kmeff/Amaxeff=Km/Amax(1+[I]/Ki) , (Cornish-Bowden, [1979]) was applied to find the Intercept (Km/Amax) and Slope (Km/(Amax*Ki)) of a dependence. The values of Ki were determined as the ratio of the corresponding Intercepts to the Slopes. In the two-site model, the Ki(1) and Ki(2) were calculated separately from the linear approximations of Km,1eff/Amax,1eff vs. [I] and Km,2eff/Amax,2eff vs. [I] dependences, respectively. The standard errors of Ki were determined from means and standard errors of the Intercepts and the Slopes, using the previously described formula for standard deviation of a fraction (Bunik et al., [1999]). The Ki values obtained from the non-linear and linear regression analyses of the experimental data were averaged and presented as Mean ± Standard Error of Mean.

[1] = low [OA] 0–0.05 mM, Michaelis-Menten, read-out: Ki, MM
[2] = low [OA], Eadie-Hofstee, read-out: Ki, EH
[3] = low [OA], Lineweaver-Burk, read-out: Ki, LB
[4] = low [OA], average, read-out: Ki, Average

difference in the affinities of the two types of the sites to OA (hepatic preparation, low- vs high-affinity sites) [fold] | Structure (SMILES) | Ki [1] | Ki [2] [nM] | Ki [3] [nM] | Ki [4] [nM] | Amax ([I] 0.5 µM) | Amax ([I] 2 µM) | Amax ([I] 10 µM) | Amax ([I] 50 µM) | Amax ([I] 200 µM) | Amax ([I] 1000 µM) | Amax ([I] 5000 µM)
 | O=C(O)CCCCC(=O)P(=O)(O)O [AP, adipoyl phosphonate] | 50 nM and 44 nM | 44 ± 111 | 56 ± 118 | 48 ± 4 | 0.0014 ± 0.0001 µmol/min per mg of protein | 0.0056 ± 0.0022 µmol/min per mg of protein | 0.0088 ± 0.0041 µmol/min per mg of protein |  |  |  | 
 | O=C(O)CCCC(=O)P(=O)(O)O [GP, glutaryl phosphonate] | 2400 ± 300 nM | 1900 ± 300 | 1600 ± 200 | 2000 ± 200 |  | 0.0026 ± 0.0002 µmol/min per mg of protein | 0.0018 ± 0.0001 µmol/min per mg of protein | 0.0011 ± 0.00005 µmol/min per mg of protein | 0.0016 ± 0.0001 µmol/min per mg of protein | 0.0013 ± 0.0001 µmol/min per mg of protein | 
60 | O=C(O)CCCC(=O)C(=O)O [OA, 2-oxoadipate] |  |  |  |  |  |  |  |  |  |  | 
 | O=C(O)CCC(=O)P(=O)(O)O [SP, succinyl phosphonate] | 128000 ± 9000 nM | 110000 ± 7000 | 109000 ± 9000 | 116000 ± 6000 |  |  | 0.0017 ± 0.0001 µmol/min per mg of protein | 0.0016 ± 0.0001 µmol/min per mg of protein | 0.0016 ± 0.00005 µmol/min per mg of protein | 0.0014 ± 0.0001 µmol/min per mg of protein | 0.0010 ± 0.00003 µmol/min per mg of protein
